Reference: US9732060B2, “Aminotriazine derivative and pharmaceutical composition comprising the same” (Shionogi & Co., Ltd., priority 2013, dated 2017)
Values belong to the compound of their own block, whether it stands above or below them.

How the values were obtained:
human P2X3 receptor [1] = biological target: T1, human P2X3 receptor (Homo sapiens (Human), UniProt P56373); assay: Evaluation of human P2X3 receptor inhibitory activity (FLIPR Ca fluorescence, ATP-evoked); type: cell-based; details: C6BU-1 cells stably expressing human P2X3 receptor
Experimental: Stably expressing cell line (C6BU-1 cell transfected with human P2X3 receptor gene (GenBank accession number Y07683) was used. The cells were seeded in a 384-well PDL-coated microtiter plate at a concentration of 3000 cells/well and cultured in the medium (8.3% fetal bovine serum, 8.3% horse serum, and 1% antibiotic and antifungal in DMEM) for one day at 37° C. under 5% carbon dioxide atmosphere. The medium was replaced with 4 μM Fluo-3-AM solution (20 mM HEPES, 137 mM NaCl, 2.7 mM KCl, 0.9 mM MgCl2, 5.0 mM CaCl2, 5.6 mM D-glucose, 2.5 mM probenecid, 0.5% BSA, and 0.04% Pluronic P-127, pH 7.5) and incubated at 37° C. under 5% dioxide carbon atmosphere for one hour. The plate was washed with washing buffer (20 mM HEPES, 137 mM NaCl, 2.7 mM KCl, 0.9 mM MgCl2, 5.0 mM CaCl2, 5.6 mM D-glucose, 2.5 mM probenecid, pH 7.5), and each well was added with 20 μL of the washing buffer. The plate was placed in High-Throughput Screening System FLIPR 384 (Molecular Device Co.). Measurement of fluorescence intensity by […] was started, and 20 μL of DMSO solutions containing different concentrations of the test compound as prepared by dilution with dilution buffer (20 mM HEPES, 137 mM NaCl, 2.7 mM KCl, 0.9 mM MgCl2, 5.0 mM CaCl2, 5.6 mM D-glucose, 2.5 mM probenecid, 0.1% Pluronic F-127, pH 7.5) were dispensed to each well through the built-in automatic dispenser. Five minutes after, 150 nM ATP solution (25 μL) prepared by dilution with the dilution buffer was dispensed through the built-in automatic dispenser, and the measurement of fluorescence intensity was continued for 4 min. For each well, the specific maximum fluorescence intensity was calculated as the ratio of the maximum fluorescence intensity after addition of the ATP solution to the fluorescence intensity at the starting of the measurement. […] The specific maximum fluorescence intensify and IC50 were calculated using Spotfire (Science & Technology Systems. Inc.)

CYP1A2 = CYP1A2 (Homo sapiens (Human), UniProt P05177); assay: CYP inhibition test, CYP1A2; type: in vitro ADME; details: pooled human hepatic microsome; 7-ethoxyresorufin-O-deethylation
Experimental: (§1) Using commercially available pooled human hepatic microsome, and employing, as markers, 7-ethoxyresorufin-O-deethylation (CYP1A2), tolbutamide methyl-hydroxylation (CYP2C9), mephenytoin 4′-hydroxylation (CYP2C19), dextromethorphan O-demethylation (CYP2D6), and terfenedine hydroxylation as typical substrate metabolism reactions of human main five CYP enzyme forms (CYP1A2, 2C9, 2C19, 2D6, 3A4), an inhibitory degree of each metabolite production amount by a test compound was assessed.
(§2) The reaction conditions were as follows: substrate, 0.5 μmol/L ethoxyresorufin (CYP1A2), 100 μmol/L tolbutamide (CYP2C9), 50 μmol/L S-mephenitoin (CYP2C19), 5 μmol/L dextromethorphan (CYP2D6), 1 μmol/L terfenedine (CYP3A4); reaction time, 15 minutes; reaction temperature, 37° C. enzyme, pooled human hepatic microsome 0.2 mg protein/mL; test, drug concentration, 1.0, 5.0, 10, 20 μmol/L (four points).
(§3) Each five kinds of substrates, human hepatic microsome, or a test drug in 50 mmol/L Hepes buffer as a reaction solution was added to a […] at the composition as described above, NADPH, as a cofactor was added to initiate metabolism reactions as markers and, after the incubation at 37° C. for 15 minutes, a methanol/acetonitrile=1/1 (v/v) solution was added to stop the reaction. After the centrifugation at 3000 rpm for 15 minutes, resorufin (CYP1A2 metabolite) in the supernatant was quantified by a fluorescent multilabel counter and tributamide hydroxide (CYP2CP metabolite), mephenytoin 4′hydroxide (CYP2C19 metabolite), […] (CYP2D6 metabolite), and terfenadine alcohol (CYP3A4 metabolite) were quantified by LC/MS/MS.
(§4) Addition of only DMSO being a solvent dissolving a drug to a reaction system was adopted as a control (100%), remaining activity (%) was calculated at each concentration of a test drug added as the solution and IC50 was calculated by reverse presumption by a logistic model using a concentration and an inhibition rate.

CYP2C9 = CYP2C9 (Homo sapiens (Human), UniProt P11712); assay: CYP inhibition test, CYP2C9; type: in vitro ADME; details: pooled human hepatic microsome; tolbutamide methyl-hydroxylation
Experimental: as §1, §2, §3, §4

CYP2C19 = CYP2C19 (Homo sapiens (Human), UniProt P33261); assay: CYP inhibition test, CYP2C19; type: in vitro ADME; details: pooled human hepatic microsome; mephenytoin 4′-hydroxylation
Experimental: as §1, §2, §3, §4

CYP2D6 = CYP2D6 (Homo sapiens (Human), UniProt P10635); assay: CYP inhibition test, CYP2D6; type: in vitro ADME; details: pooled human hepatic microsome; dextromethorphan O-demethylation
Experimental: as §1, §2, §3, §4

CYP3A4 = CYP3A4 (Homo sapiens (Human), UniProt P08684); assay: CYP inhibition test, CYP3A4; type: in vitro ADME; details: pooled human hepatic microsome; terfenedine hydroxylation
Experimental: as §1, §2, §3, §4

[2] = Solubility test (1% DMSO, artificial intestinal juice pH 6.8); type: physicochemical; details: artificial intestinal juice pH 6.8 with 1% DMSO, 25 °C, fassgf or other biorelevant, kinetic from dmso stock, artificial intestinal juice pH 6.8, 25 degrees Celsius, read-out: Solubulity
Experimental: The solubility of a compound was determined under a condition in which 1% DMSO was added. 10 mmol/L compound solution was prepared using DMSO, and then 2 μL of the compound solution was added to 198 μL of artificial intestinal juice in pH 6.8 (to 250 mL of 0.2 mol/L potassium dihydrogen phosphate reagent solution was added 118 mL of 0.2 mol/L NaOH reagent solution and water to provide a final volume of 1000 mL). After standing at 25 degrees Celsius for 18 hours, the mixed solution was filtrated with suction. The filtrate was diluted twice with methanol/water (1/1), and then a concentration in the filtration was measured with HPLC or LC/MS/MS by the absolute calibration method.

[3] = Metabolism stability test, pooled human hepatic microsomes; type: in vitro ADME; details: remaining rate, human liver microsomes, 30 minutes, compound concentration 0.5 μmol/L
Experimental: Using commercially available pooled human hepatic microsomes, a test compound is reacted for a constant time, a remaining rate is calculated by comparing a reacted sample and an unreacted sample, thereby, a degree of metabolism in liver is assessed.
A reaction was performed (oxidative reaction) at 37° C. for 0 minute or 30 minutes in the presence of 1 mmol/L NADPH in 0.2 mL of a buffer (50 mmol/L tris-HCl pH 7.4, 150 mmol/L potassium chloride, 10 mmol/L magnesium chloride) containing 0.5 mg protein/mL of human liver microsomes. After the reaction, 50 μL of the reaction solution was added to 100 μL of a methanol/acetonitrile=1/1 (v/v) mixed and centrifuged at 3000 rpm for 15 minutes. The test compound in the supernatant was quantified by LC/MS/MS, and a remaining amount of the test compound after the reaction was calculated, letting a compound amount at 0 minute reaction time to be 100%.
The remaining rate at the compound concentration 0.5 μmol/L are shown below.

human P2X3 receptor [4] = biological target: T1, human P2X3 receptor; assay: Evaluation of human P2X3 receptor inhibitory activity in the presence of human serum albumin (HSA); type: cell-based; details: in the presence of 1% HSA (final concentration)
Experimental: Stably expressing cell line (C6BU-1 cell transfected with human P2X3 receptor gene (GenBank accession number Y07683; was used. The cells were seeded in a 96-well microtiter plate at a concentration of 8000 cells/well and cultured in the medium (7.0% fetal bovine serum, 7.0% horse serum, 1% antibiotic and antifungal, and 2.0% glutamine in DMEM) for one day at 37° C. under 5% carbon dioxide atmosphere. The medium was replaced with 4 μM Fluo-3-AM solution (20 mM HEPES, 137 mM NaCl, 5.37 mM KCl, 0.9 mM MgCl2, 1.26 mM CaCl2, 5.6 mM D-glucose, 2.5 mM probenecid, 0.5% BSA, and 0.04% Pluronic F-127, pH 7.5) and incubated at 37° C. under 5% dioxide carbon atmosphere for one hour. The plate was washed with washing buffer (20 mM HEPES, 137 mM NaCl, 5.27 mM KCl, 0.9 mM MgCl2, 1.26 mM CaCl2, 5.6 mM D-glucose, 2.5 mM probenecid, pH 7.5), and each well was added with 40 μL of this buffer. The plate was placed in High-Throughput Screening System FDSS 3000 (Hamamatsu Photonics K.K.). Measurement of fluorescence intensity by FDSS 3000 was started, and 40 μL of DMSO solutions containing 1% HSA (final concentrations) different concentrations of the test compound as prepared by dilution with dilution buffer (20 mM HEPES, 137 mM NaCl, 5.27 mM KCl, 0.9 mM MgCl2, 1.26 mM CaCl2, 5.6 mM D-glucose, 2.5 mM probenecid, 0.1% Pluronic F-127, pH 7.5) were dispensed to each well through the built-in automatic dispenser. Five minutes after, 50 nM ATP solution (50 μL) prepared by dilution with the dilution buffer was dispensed through the built-in automatic dispenser, and the measurement of fluorescence intensity was continued for 4 min. For each well, the specific maximum fluorescence intensity was calculated as the ratio of the maximum fluorescence intensity after addition of the ATP solution to the fluorescence intensity at the starting of the measurement. […] FDSS software (Hamamatsu Photonics K.K.) was used for calculation of the specific maximum fluorescence intensity. IC50 was calculated using Microsoft Excel (Microsoft Corporation) and XLfit (idbs Ltd.)

T1 sequence (P56373 whole entry): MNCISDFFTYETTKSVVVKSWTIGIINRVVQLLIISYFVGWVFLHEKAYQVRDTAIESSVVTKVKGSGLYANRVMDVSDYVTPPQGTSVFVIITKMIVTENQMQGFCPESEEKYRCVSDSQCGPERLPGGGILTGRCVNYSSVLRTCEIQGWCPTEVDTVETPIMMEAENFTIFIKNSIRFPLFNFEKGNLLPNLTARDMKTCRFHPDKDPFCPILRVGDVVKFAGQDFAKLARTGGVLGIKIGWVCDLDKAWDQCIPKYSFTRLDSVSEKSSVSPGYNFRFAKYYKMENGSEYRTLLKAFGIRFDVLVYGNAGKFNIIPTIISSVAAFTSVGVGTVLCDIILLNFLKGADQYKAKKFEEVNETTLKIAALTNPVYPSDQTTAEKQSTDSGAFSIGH
CYP2D6, sequence (P10635 whole entry): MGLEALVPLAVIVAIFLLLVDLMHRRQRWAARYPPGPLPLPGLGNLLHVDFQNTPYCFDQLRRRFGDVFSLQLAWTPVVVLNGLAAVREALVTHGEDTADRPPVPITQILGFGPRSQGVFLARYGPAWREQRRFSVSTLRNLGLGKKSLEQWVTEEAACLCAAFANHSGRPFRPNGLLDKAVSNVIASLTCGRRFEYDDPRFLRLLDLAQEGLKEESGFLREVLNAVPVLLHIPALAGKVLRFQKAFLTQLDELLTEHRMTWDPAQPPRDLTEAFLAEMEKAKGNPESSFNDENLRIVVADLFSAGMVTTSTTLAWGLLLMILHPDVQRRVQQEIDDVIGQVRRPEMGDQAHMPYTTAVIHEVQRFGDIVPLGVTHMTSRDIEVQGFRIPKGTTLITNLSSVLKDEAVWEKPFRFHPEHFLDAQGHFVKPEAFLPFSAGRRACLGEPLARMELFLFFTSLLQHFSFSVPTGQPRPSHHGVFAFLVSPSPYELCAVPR
CYP2C19, sequence (P33261 whole entry): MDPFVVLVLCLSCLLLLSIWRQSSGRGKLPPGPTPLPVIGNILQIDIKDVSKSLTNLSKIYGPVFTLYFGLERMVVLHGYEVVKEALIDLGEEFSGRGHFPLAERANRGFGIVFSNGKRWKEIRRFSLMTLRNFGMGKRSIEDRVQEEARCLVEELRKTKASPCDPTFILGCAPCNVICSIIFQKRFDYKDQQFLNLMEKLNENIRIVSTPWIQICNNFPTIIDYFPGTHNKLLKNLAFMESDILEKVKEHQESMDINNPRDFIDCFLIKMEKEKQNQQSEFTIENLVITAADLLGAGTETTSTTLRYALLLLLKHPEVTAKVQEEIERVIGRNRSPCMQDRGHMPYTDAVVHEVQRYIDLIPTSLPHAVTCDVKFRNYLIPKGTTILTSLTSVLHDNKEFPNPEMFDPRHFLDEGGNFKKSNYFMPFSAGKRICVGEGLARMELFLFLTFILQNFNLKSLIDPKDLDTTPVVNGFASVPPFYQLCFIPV
CYP2C9, sequence (P11712 whole entry): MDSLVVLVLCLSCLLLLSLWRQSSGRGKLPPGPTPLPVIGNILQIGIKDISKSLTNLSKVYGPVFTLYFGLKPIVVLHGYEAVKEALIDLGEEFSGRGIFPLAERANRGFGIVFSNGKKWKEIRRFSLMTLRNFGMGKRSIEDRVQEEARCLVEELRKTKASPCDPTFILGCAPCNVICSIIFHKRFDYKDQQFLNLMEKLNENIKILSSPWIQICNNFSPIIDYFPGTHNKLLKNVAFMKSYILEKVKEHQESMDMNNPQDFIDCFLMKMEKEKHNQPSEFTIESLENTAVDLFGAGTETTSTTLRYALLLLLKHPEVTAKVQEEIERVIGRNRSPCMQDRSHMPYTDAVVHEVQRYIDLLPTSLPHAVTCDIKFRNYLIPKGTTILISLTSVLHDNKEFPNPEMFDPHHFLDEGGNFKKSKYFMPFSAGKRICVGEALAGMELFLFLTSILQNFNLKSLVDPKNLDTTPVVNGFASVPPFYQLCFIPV
CYP1A2, sequence (P05177 whole entry): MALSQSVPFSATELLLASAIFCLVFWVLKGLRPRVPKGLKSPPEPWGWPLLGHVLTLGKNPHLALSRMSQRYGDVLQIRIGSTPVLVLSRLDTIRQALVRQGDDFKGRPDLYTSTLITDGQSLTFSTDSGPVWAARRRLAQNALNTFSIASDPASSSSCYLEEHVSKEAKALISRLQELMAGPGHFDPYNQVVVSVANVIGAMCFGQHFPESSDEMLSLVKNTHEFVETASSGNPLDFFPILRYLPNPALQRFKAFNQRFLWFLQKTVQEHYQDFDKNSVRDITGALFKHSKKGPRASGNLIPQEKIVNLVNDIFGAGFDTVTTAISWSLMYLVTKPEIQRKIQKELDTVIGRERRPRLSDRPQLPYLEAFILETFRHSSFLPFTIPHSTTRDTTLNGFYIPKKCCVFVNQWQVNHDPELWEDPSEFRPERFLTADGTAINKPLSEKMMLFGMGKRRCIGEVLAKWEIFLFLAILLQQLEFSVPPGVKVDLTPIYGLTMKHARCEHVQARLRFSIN
CYP3A4, sequence (P08684 whole entry): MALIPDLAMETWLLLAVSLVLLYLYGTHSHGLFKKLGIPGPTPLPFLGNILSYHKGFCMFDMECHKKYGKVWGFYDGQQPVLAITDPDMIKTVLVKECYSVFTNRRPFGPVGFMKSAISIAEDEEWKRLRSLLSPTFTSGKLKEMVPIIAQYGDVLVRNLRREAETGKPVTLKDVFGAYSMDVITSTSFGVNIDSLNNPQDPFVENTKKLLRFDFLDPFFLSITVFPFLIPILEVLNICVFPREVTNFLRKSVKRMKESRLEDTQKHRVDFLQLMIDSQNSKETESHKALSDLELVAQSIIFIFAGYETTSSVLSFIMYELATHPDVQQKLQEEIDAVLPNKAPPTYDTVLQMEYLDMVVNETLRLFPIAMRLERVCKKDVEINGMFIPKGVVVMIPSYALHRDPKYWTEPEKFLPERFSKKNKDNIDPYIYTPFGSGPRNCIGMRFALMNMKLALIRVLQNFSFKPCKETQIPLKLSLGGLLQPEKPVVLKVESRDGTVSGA

Compound: Cc1ccc(Cn2c(=O)n(C[C@H](C)C(=O)O)c(=O)[nH]/c2=N\c2ccc(Oc3ncc(C)s3)cc2)cc1 [Compound R-218]
IC50 (human P2X3 receptor [1]): 8 nM

Compound: C[C@@H](C(=O)O)[C@H](C)n1c(=O)[nH]/c(=N\c2ccc(Oc3ccnc(Cl)c3)cc2)n(Cc2ccc(Cl)cc2)c1=O [Compound R-154]
IC50 (human P2X3 receptor [1]): 8 nM

IC50 (CYP1A2): > 20000 nM | IC50 (CYP2C9): > 20000 nM | IC50 (CYP2C19): > 20000 nM | IC50 (CYP2D6): > 20000 nM | IC50 (CYP3A4): > 20000 nM | solubility at 18 h [2]: > 50 µM | Metabolism Stability [3]: 97%
Compound: O=c1[nH]/c(=N\c2ccc(Oc3ncccc3F)cc2)n(Cc2ccc(Cl)cc2)c(=O)n1[C@H]1C[C@H](C(=O)O)C1 [Compound I-063]

Compound: [2H]C([2H])([2H])c1ccc(Cn2c(=O)n(C[C@H](C)C(=O)O)c(=O)[nH]/c2=N\c2ccc(Oc3ccc(F)cn3)cc2)cc1 [Compound I-130]
IC50 (human P2X3 receptor [1]): 6 nM

Compound: COC(=O)[C@@H](C)Cn1c(=O)[nH]/c(=N\c2ccc(Oc3ccccn3)c(F)c2)n(C[C@H]2CC[C@H](C)CC2)c1=O [Compound I-253]
IC50 (human P2X3 receptor [1]): 9 nM

Compound: COc1ccc(Oc2ccc(/N=c3\[nH]c(=O)n(C[C@H](C)C(=O)O)c(=O)n3Cc3ccc(Cl)cc3)cc2)nc1 [Compound I-079]
IC50 (human P2X3 receptor [4]): 37 nM

Compound: C[C@@H](Cn1c(=O)[nH]/c(=N\c2ccc(Oc3cc(F)ccn3)cc2)n(Cc2ccc(Cl)cc2)c1=O)C(=O)O [Compound I-070]
IC50 (human P2X3 receptor [4]): 37 nM | Metabolism Stability [3]: 103%

Compound: C[C@@H](Cn1c(=O)[nH]/c(=N\c2ccc(Oc3ccnc(C#N)c3)cc2)n(Cc2ccc(Cl)cc2)c1=O)C(=O)O [Compound R-123]
IC50 (human P2X3 receptor [4]): 18 nM
